Values quoted from earlier work, collected in patent publication EP1227797B1, “SOLID DISPERSION PHARMACEUTICAL FORMULATIONS” (ABBOTT LABORATORIES, priority 1999, dated 2001).

Conditions: PEG solid dispersion formulation

bioavailability: unable to improve the bioavailability
Compound: O=C1N(Cc2ccc(CO)cc2)[C@H](Cc2ccccc2)[C@H](O)[C@@H](O)[C@@H](Cc2ccccc2)N1Cc1ccc(CO)cc1 [DMP 323]
